Experiment [1] has as its system Female CFLP mice. In words: Anti-hyperglycaemic activity (subcutaneous glucose load, blood glucose curve). Format: in vivo. Particulars: Dose 0.02 µmol/kg orally as aqueous solution, 6 mice fasted for 24 hours; glucose 1g/kg subcutaneously 30 minutes later; area over the 2 hour period compared with control mice given water. The method, then: Female CFLP mice, weighing approximately 25 g, were fasted for 24 hours prior to the study. The compound under study was administered orally as an aqueous solution to each of 6 mice. 30 minutes later a blood sample (10µl) was obtained from the tail for the analysis of blood glucose. Immediately after taking this blood sample, glucose (1g/kg body weight) was administered subcutaneously to each mouse. 6 mice were given water as a control. Blood samples were then obtained from each mouse at 30 minute intervals for 120 minutes. Compounds that produce a significant (P<0.05) reduction of blood glucose, compared with control mice given water, at any time interval, are considered active. The area under the blood glucose curve over the 2 hour period after the administration of the glucose was calculated for the compound and compared with the value for control animals.

The subject of experiment [2] is Male Sprague-Dawley rats. Briefly: Effect on Energy Expenditure of Rats. Format: in vivo. As to conditions: Dose 0.2 µmol/kg p.o. in water, rats deprived of food, percentage of the rate of energy expenditure of the rats dosed with water. The method, then: Water was provided ad lib at all times. The compounds were administered orally in water to 3 or 4 rats. A further 4 rats were dosed orally with water. The rats were placed in boxes through which air was drawn and the oxygen content of the air leaving the boxes was measured. The energy expenditure of the rats was calculated for 3 hours and for 21 hours after dosing from the volume of air leaving the boxes and its oxygen content, following the principles described by J.B. de V. Weir, J. Physiol. (London) 109, 1-9 (1949). The results are expressed as a percentage of the rate of energy expenditure of the rats dosed with water.

Turning to `COC(=O)COc1ccc(C[C@@H](C)NC[C@H](O)c2cccc(Cl)c2)cc1` [Example 1, N-[2-(4-Carbomethoxymethoxyphenyl)-1-(R)-1-methylethyl-2-(R)-2-hydroxy-2-(3-chlorophenyl)ethananine, hemifumarate], the “% Reduction in area under Blood Glucose Curve” value in experiment [1] is 51%. In experiment [2] (3 hours after dosing), the “Mean Energy Expenditure (0-3h)” value came to 134 percentage. The “Mean Energy Expenditure (0-21h)” value in experiment [2] (21 hours after dosing) came out at 111 percentage.

The values above are taken from patent publication EP0262785A1, “N-[2-(4-carboxymethoxyphenyl)-1-methylethyl]-2-hydroxy-2-(3-chlorophenyl)ethane amine, the methyl ester, salt and stereoisomeric forms thereof” (BEECHAM GROUP PLC, priority 1986, dated 1988).
